Test [1] relates to CCL17 secretion in peripheral human whole blood. Nature of the test: Human Whole Blood (HWB) CCL17 TR-FRET Assay (IL-13 stimulated CCL17 secretion). The class given is cell-based. In outline:
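Compounds are titrated (11 points, 3-fold, duplicate) into fresh heparinized human whole blood and held 2 h at 37 °C before IL-13 challenge (10 ng/mL final). After 48 h at 37 °C, serum CCL17 is measured by TR-FRET sandwich assay and IC50 values are calculated.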
On the technique in general: In TR-FRET formats the signal depends on donor and acceptor labels being close together.

The target of another test is T1, STAT6 (Homo sapiens, UniProt P42226).
T1 construct: stably transfected HaCaT keratinocyte cell line, which expresses NanoLuc luciferase reporter gene under the transcriptional control of the STAT6 responsive promoter; endogenous in cells; host or cells: HaCaT keratinocyte reporter cell line (stably transfected with a NanoLuc reporter)
T1 sequence (P42226 1-847): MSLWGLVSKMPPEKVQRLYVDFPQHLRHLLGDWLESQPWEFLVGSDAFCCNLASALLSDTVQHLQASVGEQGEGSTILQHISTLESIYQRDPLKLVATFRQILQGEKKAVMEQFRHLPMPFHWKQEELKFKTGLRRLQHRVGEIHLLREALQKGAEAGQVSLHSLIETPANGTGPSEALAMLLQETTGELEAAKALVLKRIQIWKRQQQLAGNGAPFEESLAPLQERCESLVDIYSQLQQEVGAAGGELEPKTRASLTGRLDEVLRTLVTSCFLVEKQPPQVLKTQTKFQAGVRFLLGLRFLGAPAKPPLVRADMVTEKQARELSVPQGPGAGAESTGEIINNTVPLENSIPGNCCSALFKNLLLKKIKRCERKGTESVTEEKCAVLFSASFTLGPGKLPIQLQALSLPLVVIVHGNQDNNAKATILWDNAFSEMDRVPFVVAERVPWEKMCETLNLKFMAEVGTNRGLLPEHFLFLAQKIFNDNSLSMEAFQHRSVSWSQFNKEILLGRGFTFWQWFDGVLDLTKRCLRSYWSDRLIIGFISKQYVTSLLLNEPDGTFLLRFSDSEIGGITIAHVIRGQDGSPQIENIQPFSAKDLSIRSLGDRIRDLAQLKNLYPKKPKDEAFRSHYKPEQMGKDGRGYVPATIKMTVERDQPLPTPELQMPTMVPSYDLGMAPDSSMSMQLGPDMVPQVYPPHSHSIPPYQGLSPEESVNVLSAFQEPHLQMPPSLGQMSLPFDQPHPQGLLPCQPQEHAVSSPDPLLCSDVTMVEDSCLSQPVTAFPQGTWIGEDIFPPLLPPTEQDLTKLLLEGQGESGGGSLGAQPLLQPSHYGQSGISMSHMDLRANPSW
In words: STAT6 Reporter Luciferase Assay (IL-13 stimulated HaCaT keratinocyte NanoLuc reporter cells). As to conditions: read-out: Reporter EC50. The class given is cell-based. The essentials: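 HaCaT cells stably carrying a NanoLuc reporter driven by the STAT6-responsive IL-13Ra2 promoter were preincubated with compounds for 2 h at 37 °C in 2% FBS medium. Cells were then stimulated with 0.12 nM IL-13 for 4 h, and luminescence was read after Nano-Glo substrate. Compounds ran as 11-point 4-fold dilutions in duplicate.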

Setting [2] is: Homo sapiens, 48 h, inhibition of CCL17 secretion in human whole blood, 10 ng/mL IL13, 48 hours.
Setting [3] is: STAT6 NanoLuc luciferase reporter, IL-13 stimulated HaCaT keratinocyte cells.
[4] abbreviates: Homo sapiens, 48 h, human whole blood, 10 ng/mL IL13, 48 hours.
Where [5] appears, read: IL-13 stimulated HaCaT STAT6 NanoLuc reporter cells.
Where [6] appears, read: Homo sapiens, 48 h, human whole blood, IL-13 stimulated.
Setting [7] is: Homo sapiens, 48 h, human whole blood, IL-13 10 ng/mL.

The structures appear in SMILES notation. Where two headings read alike, the source gives them in different places.

Regarding `CC(C)n1nc(C(=O)NCc2ccc(NC(=O)N(C)C)cn2)c2c1C(C(F)(F)F)CN(c1ccc(C(=O)N(C)C)cn1)C2` (racemic) [Example 121, rac-(R)-5-(5-(dimethylcarbamoyl)pyridin-2-yl)-N-((5-(3,3-dimethylureido)pyridin-2-yl)methyl)-1-isopropyl-7-(trifluoromethyl)-4,5,6,7-tetrahydro-1H-pyrazolo[4,3-c]pyridine-3-carboxamide], in test [1] (setting [2]), the IC50 (usually the midpoint of a concentration-inhibition curve) came out at 6 nM. The EC50 (in general, the midpoint of the concentration-response curve) at STAT6 (setting [3]) was determined as 1 nM.

Turning to `CC(C)n1nc(C(=O)NCc2ccc(NC(=O)N(C)CC3COCCO3)cc2)c2c1CCN(c1ccc(C(=O)N(C)C)cn1)C2` (racemic) [Example 176, rac-(R)-N-(4-(3-((1,4-dioxan-2-yl)methyl)-3-methylureido)benzyl)-5-(5-(dimethylcarbamoyl)pyridin-2-yl)-1-isopropyl-4,5,6,7-tetrahydro-1H-pyrazolo[4,3-c]pyridine-3-carboxamide], the midpoint of inhibition in test [1] (setting [2]), the IC50, lay at 51 nM. Further, the EC50 on STAT6 (setting [3]) was 12 nM.

`CC1CN(c2ncc(C(=O)N(C)C)cn2)Cc2c(C(=O)NCc3ccc(NC(=O)N(C)C)cc3)nn(C(C)C)c21` (racemic) [Example 532, rac-(R)-5-(5-(dimethylcarbamoyl)pyrimidin-2-yl)-N-(4-(3,3-dimethylureido)benzyl)-1-isopropyl-7-methyl-4,5,6,7-tetrahydro-1H-pyrazolo[4,3-c]pyridine-3-carboxamide] showed an IC50 in test [1] (setting [4]) of 4 nM. Besides, the EC50 on STAT6 (setting [5]) was found to be 1 nM.

Compound `CCn1nc(C(=O)NCc2ccc(NC(=O)N(C)C)cc2)c2c1[C@H](C)[C@@H](C)N(c1ccc(C(=O)N(C)C)cn1)C2` (single isomer, unassigned) [Example 353] gave a 50% inhibitory concentration (IC50) in test [1] (setting [6]) of 47 nM. Also, the EC50 on STAT6 (setting [5]) worked out at 4 nM.

In test [1] (setting [7]), `CN[C@@H]1CCN(C(=O)Nc2ccc(CNC(=O)c3nn(C(C)C)c4c3CN(c3ccc(C(=O)N(C)C)cc3)C[C@@H]4C)cc2)C1` [Example 722, (S)-5-(4-(dimethylcarbamoyl)phenyl)-1-isopropyl-7-methyl-N-(4-((R)-3-(methylamino)pyrrolidine-1-carboxamido)benzyl)-4,5,6,7-tetrahydro-1H-pyrazolo[4,3-c]pyridine-3-carboxamide] registered an IC50 of 40 nM. For the same compound, the EC50 on STAT6 (setting [5]) was 8 nM.

For `CC(C)c1nc(C(=O)NCc2ccc(NC(=O)N(C)C)cc2)c2n1C(C)CN(c1ccc(C(=O)N(C)C)cc1)C2` (single isomer, unassigned) [Example 538, rel-(R or S)-7-(4-(Dimethylcarbamoyl)phenyl)-N-(4-(3,3-dimethylureido)benzyl)-3-isopropyl-5-methyl-5,6,7,8-tetrahydroimidazo[1,5-a]pyrazine-1-carboxamide], in test [1] (human whole blood, 10 ng/mL IL13, 48 hours), the IC50 stood at 5 nM. The EC50 on STAT6 (setting [5]) turned out to be 0.2 nM.

The compound `CC(C)n1nc(C(=O)NCc2ccc(NC(=O)N(C)C)cc2)c2c1[C@@H](C)CN(c1ncc(C(=O)NCc3ccc(NC(=O)N(C)C)cc3)cn1)C2` [Example 500, (S)-N-(4-(3,3-dimethylureido)benzyl)-5-(5-((4-(3,3-dimethylureido)benzyl)carbamoyl)pyrimidin-2-yl)-1-isopropyl-7-methyl-4,5,6,7-tetrahydro-1H-pyrazolo[4,3-c]pyridine-3-carboxamide] returned an IC50 in test [1] (setting [6]) of 104 nM. The EC50 at STAT6 (setting [5]) is 11 nM.

With `CC(C)n1nc(C(=O)NCc2ccc(NC(N)=O)cc2)c2c1CCN(c1ccc(C(=O)N(C)C)cn1)C2` [Example 133, 5-(5-(dimethylcarbamoyl)pyridin-2-yl)-1-isopropyl-N-(4-ureidobenzyl)-4,5,6,7-tetrahydro-1H-pyrazolo[4,3-c]pyridine-3-carboxamide], the IC50 in test [1] (setting [2]) stood at 48 nM. Besides, at STAT6 (setting [3]), the EC50 came to 28 nM.

`CN(C)C(=O)Nc1ccc(CNC(=O)c2nn(C3CCCOC3)c3c2CN(c2ccc(C(=O)N(C)C)cn2)CC3)cc1` (centres unmarked) [Example 254, 5-(5-(dimethylcarbamoyl)pyridin-2-yl)-N-(4-(3,3-dimethylureido)benzyl)-1-(tetrahydro-2H-pyran-3-yl)-4,5,6,7-tetrahydro-1H-pyrazolo[4,3-c]pyridine-3-carboxamide] yielded an IC50 in test [1] (setting [6]) of 180 nM. The EC50 on STAT6 (setting [5]) was 22 nM.

On to `CCn1nc(C(=O)NCc2ccc(-c3ncc[nH]3)cc2)c2c1[C@@H](C)CN(c1ncc(C(=O)N(C)C)cn1)C2` [Example 301, (S)-N-(4-(1H-imidazol-2-yl)benzyl)-5-(5-(dimethylcarbamoyl)pyrimidin-2-yl)-1-ethyl-7-methyl-4,5,6,7-tetrahydro-1H-pyrazolo[4,3-c]pyridine-3-carboxamide], for which it took 8 nM to reach half-maximal inhibition in test [1] (setting [6]) (IC50). Also, the EC50 at STAT6 (setting [5]) worked out at 1 nM.

In test [1] (setting [4]), `CC(C)n1nc(C(=O)NCc2ccc(NC(=O)N3CC4(CCN(C)CC4)C3)c(F)c2)c2c1[C@@H](C)CN(c1ccc(C(=O)N(C)C)cn1)C2` [Example 608, (S)-5-(5-(dimethylcarbamoyl)pyridin-2-yl)-N-(3-fluoro-4-(7-methyl-2,7-diazaspiro[3.5]nonane-2-carboxamido)benzyl)-1-isopropyl-7-methyl-4,5,6,7-tetrahydro-1H-pyrazolo[4,3-c]pyridine-3-carboxamide] returned an IC50 of 16 nM. Besides, at STAT6 (setting [5]), the EC50 is 1 nM.

Take `CC(C)n1nc(C(=O)NCc2ccc(NC(=O)NCc3ccc(NC(=O)N(C)C)cc3)cc2)c2c1[C@@H](C)CN(c1ccc(C(=O)N(C)C)cn1)C2` [Example 499, (S)-5-(5-(dimethylcarbamoyl)pyridin-2-yl)-N-(4-(3-(4-(3,3-dimethylureido)benzyl)ureido)benzyl)-1-isopropyl-7-methyl-4,5,6,7-tetrahydro-1H-pyrazolo[4,3-c]pyridine-3-carboxamide]: in test [1] (setting [6]), 6 nM corresponded to half-maximal inhibition (IC50). Further, the EC50 on STAT6 (setting [5]) amounted to 0.3 nM.

`Cc1ccnc(-c2ccc(CNC(=O)c3nn(C(C)C)c4c3CN(c3ccc(C(=O)N(C)C)cc3)C[C@@H]4C)cc2)n1` [Example 730, (S)-5-(4-(dimethylcarbamoyl)phenyl)-1-isopropyl-7-methyl-N-(4-(4-methylpyrimidin-2-yl)benzyl)-4,5,6,7-tetrahydro-1H-pyrazolo[4,3-c]pyridine-3-carboxamide]: the concentration for half-maximal inhibition (IC50) in test [1] (setting [7]) was > 15100 nM. Also, on STAT6 (setting [5]), the EC50 is > 10000 nM.

For `CC(C)n1nc(C(=O)NCc2ccc(NC(=O)N(C)C)cc2)c2c1C[C@H](C)N(c1ccc(C(=O)N(C)C)cn1)C2` [Example 139, (S)-5-(5-(dimethylcarbamoyl)pyridin-2-yl)-N-(4-(3,3-dimethylureido)benzyl)-1-isopropyl-6-methyl-4,5,6,7-tetrahydro-1H-pyrazolo[4,3-c]pyridine-3-carboxamide], half-maximal inhibition in test [1] (setting [2]) (IC50) required 7 nM. At STAT6 (setting [3]), the EC50 was found to be 2 nM.

For the compound `CCC1CN(c2ccc(C(=O)N(C)C)cn2)Cc2c(C(=O)NCc3ccc(NC(=O)N(C)C)cc3)nn(C)c21` (single isomer, unassigned) [Example 78, rel-(R or S)-5-(5-(Dimethylcarbamoyl)pyridin-2-yl)-N-(4-(3,3-dimethylureido)benzyl)-7-ethyl-1-methyl-4,5,6,7-tetrahydro-1H-pyrazolo[4,3-c]pyridine-3-carboxamide], half-maximal inhibition in test [1] (inhibition of CCL17 secretion in human whole blood, 10 ng/mL IL13, 48 hours) (IC50) required 14 nM. For the same compound, the EC50 on STAT6 (setting [3]) came out at 3 nM.

In test [1] (setting [4]), `CCn1nc(C(=O)NCc2ccc(NC(=O)N(C)C)cc2)c2c1C(C)CN(c1ncc(C(=O)N(C)C)cn1)C2` (racemic) [Example 531, rac-(R)-5-(5-(dimethylcarbamoyl)pyrimidin-2-yl)-N-(4-(3,3-dimethylureido)benzyl)-1-ethyl-7-methyl-4,5,6,7-tetrahydro-1H-pyrazolo[4,3-c]pyridine-3-carboxamide] returned an IC50 of 14 nM. For the same compound, the EC50 at STAT6 (setting [5]) came to 1 nM.

The values are drawn from US20250320213A1, “Nitrogen-Containing Heterocyclic Compounds” (Pfizer Inc., priority 2024, published 2025).
